Values quoted from earlier work in patent US20080070991A1 (priority 2006, published 2008).

System: stilbene synthase
Conditions: Barbera cell suspensions treated with 10 μm methyljasmonate

CC/C=C\CC1C(=O)CCC1CC(=O)OC (stereo not shown) [methyljasmonate, Methyljasmonate]
stilbene synthase expression (gel analysis): up-regulation of the stilbene synthase
